In assay [1] the target is human recombinant 5-HT2A receptor (Homo sapiens (Human), UniProt P28223). The assay is described as follows: 5-HT2A receptor binding inhibition test ([3H]-Ketanserin). Conditions: Jump-In HEK cell membrane. The protocol:
Test Example 1: 5-HT2A Receptor Binding Inhibition Test
(§1) (Each Experimental Condition)
Cell membrane: Jump-In HEK cell membrane (expressing human recombinant 5-HT2A receptor)
(§2) Assay buffer: Tris-HCl 50 mmol/L (pH 7.4) containing NaCl 120 mmol/L, MgCl2.6H2O 1 mmol/L, KCl 5 mmol/L, 0.1% BSA, and CaCl2 2 mmol/L
Radioactive ligand: [^3H]-Ketanserin around Kd value calculated by the following method
(§3) Non-specific ligand: Serotonin HCl
(§4) The Kd value was calculated when the lot of cell membrane was changed. In advance, 0.5 μL of a 1 mmol/L compound for non-specific binding calculation dissolved in DMSO or DMSO was dispensed into a microplate, and the cell membrane was diluted with an Assay buffer. The radioactive ligand solution was serially diluted and the count was confirmed with a liquid scintillator. Assay buffer containing diluted cell membrane was dispensed into a microplate at 50 μL/well. Then, the radioactive ligand solution was dispensed into a microplate at 50 μL/well, and the plate was sealed. It was allowed to stand at room temperature (25° C.) for 1.5 hours. During this period, 50 mmol/L Tris-HCl (pH 7.4) was dispensed into a GF/B UniFilter plate at 50 μL/well and allowed to stand at 4° C. for 1 hour or longer. After that, filtration was performed with Cell harvester (PerkinElmer). The radioactive ligand solution was dispensed into an empty well of the GF/B UniFilter plate at 10 μL/well. After the GF/B UniFilter plate was dried at room temperature, MicroScinti 20 was dispensed into the GF/B UniFilter plate at 50 μL/well, and the plate was sealed. The GF/B UniFilter plate was allowed to stand overnight at room temperature. The radioactivity of [^3H]-Ketanserin bound to the 5-HT2A receptor was measured using Microbeta2 (PerkinElmer) at a measurement time of 1 min/well. The Saturation curve was drawn from the measured value, and the Kd value was calculated from the slope of the Scatchard Plot.
(§5) (Binding Test of the Compound According to the Present Invention)
(§6) In advance, 0.5 μL of the compound solution dissolved in DMSO was dispensed into a microplate, and the cell membrane and the hot ligand were diluted with Assay buffer, respectively. Then, the Assay buffer containing the diluted cell membrane was dispensed into a microplate at 50 μL/well. Then, the radioactive ligand solution was dispensed into a microplate at 50 μL/well, and the plate was sealed. Then, it was allowed to stand at room temperature (25° C.) for 1.5 hours. During this period, 50 mmol/L Tris-HCl (pH 7.4) was dispensed into a GF/B UniFilter plate at 50 μL/well and allowed to stand at 4° C. for 1 hour or longer. After that, filtration was performed with Cell harvester (PerkinElmer). After the GF/B UniFilter plate was dried at room temperature, MicroScinti 20 was dispensed into the GF/B UniFilter plate at 50 μL/well, and the plate was sealed. The GF/B UniFilter plate was allowed to stand overnight at room temperature. The radioactivity of [^3H]-Ketanserin bound to the 5-HT2A receptor was measured using Microbeta2 (PerkinElmer) at a measurement time of 1 min/well. The non-specific binding was calculated from the radioactivity of [^3H]-Ketanserin in the presence of […] Serotonin HCl with the unlabeled ligand, and the total binding was calculated from the radioactivity of [^3H]-Ketanserin in the absence of the compound according to the present invention (Vehicle). Finally, the Ki value was calculated from the dose-response curve.
(§7) (The binding activity of the compound according to the present invention was calculated from the following binding inhibition rate (%).)
(§8) Inhibition rate (%)=[1−(c−a)/(b−a)]×100 • a; mean cpm of non-specific binding • b; mean cpm of total binding • c; cpm in the presence of the test compound

For assay [2], the target named is human recombinant 5-HT2C receptor (Homo sapiens (Human), UniProt P28335). The assay is described as follows: 5-HT2C receptor binding inhibition test ([3H]-Mesulergine). Conditions: Jump-In HEK cell membrane, [3H]-Mesulergine. The method, then:
as §1
Cell membrane: Jump-In HEK cell membrane (expressing human recombinant 5-HT2C receptor)
as §2
Radioactive ligand: [^3H]-Mesulergine around Kd value calculated by the following method
as §3
as §4, with “[…]” for “4°”, “The radioactivity of [^3H]-Ketanserin bound to the 5-HT2A receptor was measured using Microbeta2 (PerkinElmer) at a measurement time of 1 min/well.” left out
as §5
as §6, with “37° C.” for “room temperature (25° C.)”, “2” for “1.5”, “The radioactivity of [^3H]-Ketanserin bound to the 5-HT2A receptor was measured using Microbeta2 (PerkinElmer) at a measurement time of 1 min/well.” left out, “[^3H]-Mesulergine” for “[^3H]-Ketanserin”
as §7, §8

Setting [3] is: read-out: human serotonin 5-HT2A receptor binding activity, Ki value.
Where [4] appears, read: read-out: human serotonin 5-HT2C receptor binding inhibitory activity, Ki value.

Read-outs that look alike come from different tables or passages of the source.

Sequence of human recombinant 5-HT2A receptor (P28223 whole entry): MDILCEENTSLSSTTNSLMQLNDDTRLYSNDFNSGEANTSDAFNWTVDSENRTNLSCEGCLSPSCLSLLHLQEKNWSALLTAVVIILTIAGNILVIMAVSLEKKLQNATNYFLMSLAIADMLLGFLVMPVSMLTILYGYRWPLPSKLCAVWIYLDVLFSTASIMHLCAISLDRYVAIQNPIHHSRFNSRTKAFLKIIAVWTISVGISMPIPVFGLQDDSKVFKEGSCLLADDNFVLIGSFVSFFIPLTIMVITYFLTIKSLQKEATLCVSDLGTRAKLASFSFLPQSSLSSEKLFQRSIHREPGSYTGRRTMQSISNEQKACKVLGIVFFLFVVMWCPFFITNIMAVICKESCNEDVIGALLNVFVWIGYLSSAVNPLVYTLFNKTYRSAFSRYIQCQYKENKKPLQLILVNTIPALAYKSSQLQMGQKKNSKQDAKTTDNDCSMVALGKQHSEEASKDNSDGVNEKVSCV
Sequence of human recombinant 5-HT2C receptor (P28335 33-458): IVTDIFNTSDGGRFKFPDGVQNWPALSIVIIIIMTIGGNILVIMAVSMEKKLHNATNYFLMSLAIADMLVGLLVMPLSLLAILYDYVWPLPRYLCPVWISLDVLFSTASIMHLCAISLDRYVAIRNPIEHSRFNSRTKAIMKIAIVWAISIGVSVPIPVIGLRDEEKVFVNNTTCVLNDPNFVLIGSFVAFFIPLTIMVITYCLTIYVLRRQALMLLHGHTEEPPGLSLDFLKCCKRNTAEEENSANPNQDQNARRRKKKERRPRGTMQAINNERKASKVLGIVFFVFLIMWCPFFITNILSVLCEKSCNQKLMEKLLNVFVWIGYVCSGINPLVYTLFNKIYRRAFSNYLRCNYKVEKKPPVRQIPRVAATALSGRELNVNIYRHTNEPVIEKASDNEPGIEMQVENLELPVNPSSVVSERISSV

The Ki is the equilibrium dissociation constant of an inhibitor or competing ligand from its target. Take `CC(C)COc1ccc(CN(Cc2cccs2)C(=O)NC2CCN(C)CC2)cc1` [Compound I-034]: the Ki in assay [1] (read-out: h-5-HT2A Ki) was less than 10 nM; in assay [2] (read-out: h-5-HT2C Ki), 10 to 100 nM.
In the same order, the values of `CC(C)COc1ccc(CN(Cc2ccc(F)cn2)C(=O)N[C@H]2CCN(C)C[C@H]2F)cc1` [Compound I-050] are less than 10 nM and less than 10 nM.
As to `CC(C)COc1ccc(CN(Cc2cc3ccccc3o2)C(=O)NC2CCN(C)CC2)cc1` [Compound I-033], the Ki was found to be 4.01 nM in assay [1] (setting [3]) and 28.9 nM in assay [2] (setting [4]).
`Cc1ccc(CN(Cc2ccc(OCC(C)C)cc2)C(=O)OC2CCN(C)CC2)[nH]1` [Compound I-085]: the Ki is less than 10 nM in assay [1] (read-out: h-5-HT2A Ki) and 10 to 100 nM in assay [2] (read-out: h-5-HT2C Ki).
For `CC(C)Oc1ccc(CN(Cc2ccn(C)n2)C(=O)NC2CCN(C)CC2)cc1` [Compound I-047], in that order: 10 to 100 nM and 10 to 100 nM.
In the case of `CCCCOc1ccc(CN(Cc2coc(C)n2)C(=O)CC2CCN(C)CC2)cc1F` [Compound I-123], the Ki in assay [1] (setting [3]) stood at 0.506 nM; in assay [2] (setting [4]), 1.39 nM.
On to `CC(C)COc1ccc(CN(Cc2ccn(C)n2)C(=O)CN2CCN(C)CC2)cc1` [Compound I-036], for which the figures for the Ki in assay [1] (read-out: h-5-HT2A Ki) and in assay [2] (read-out: h-5-HT2C Ki) were 10 to 100 nM and 100 to 5000 nM, respectively.
For `CC(C)COc1ccc(CN(Cc2coc(CF)n2)C(=O)NC2CCN(C)CC2)cc1` [Compound I-120], in that order: less than 10 nM and less than 10 nM.
`CN1CCC(NC(=O)N(Cc2cnn(C)n2)Cc2ccc(OCC(F)(F)C(F)(F)F)cc2F)CC1` [Compound I-122]: the Ki in assay [1] (setting [3]) is 0.824 nM; in assay [2] (setting [4]), 0.281 nM.
In the case of `CN1CCC(NC(=O)N(Cc2ccc(OCC(F)(F)F)cc2)Cc2coc(C3CC3)n2)CC1` [Compound I-111], the Ki in assay [1] (read-out: h-5-HT2A Ki) and in assay [2] (read-out: h-5-HT2C Ki) was less than 10 nM throughout.
For the compound `CC(C)COc1ccc(CN(Cc2ccn(C)n2)C(=O)NCC2CN(C)C2)cc1` [Compound I-059], the Ki lay in the range of 10 to 100 nM in assay [1] (read-out: h-5-HT2A Ki) and 100 to 5000 nM in assay [2] (read-out: h-5-HT2C Ki).
Turning to `CC(C)COc1ccc(CN(Cc2ccn(C)n2)C(=O)N[C@@H]2CCNCC2(F)F)cc1` [Compound I-027], the Ki in assay [1] (read-out: h-5-HT2A Ki) and in assay [2] (read-out: h-5-HT2C Ki) was 100 to 5000 nM in each case.
As for `Cc1ccc(CN(Cc2ccn(C)n2)C(=O)NC2CCN(C)CC2)cc1` [Compound I-038], the inhibitory constant (Ki) in assay [1] (read-out: h-5-HT2A Ki) and in assay [2] (read-out: h-5-HT2C Ki) was 10 to 100 nM in each case.
Consider `CC(C)COc1ccc(CN(Cc2ccn(C)n2)C(=O)NC2C3CCC2CN(C)C3)cc1` (single isomer, unassigned) [Compound I-075], for which the Ki in assay [1] (read-out: h-5-HT2A Ki) and in assay [2] (read-out: h-5-HT2C Ki) was 10 to 100 nM each time.
Regarding `CCCCOc1ccc(CN(Cc2coc(C)n2)C(=O)CCC2CCNCC2)cc1F` [Compound I-127], the Ki is 10 to 100 nM in assay [1] (read-out: h-5-HT2A Ki) and 100 to 5000 nM in assay [2] (read-out: h-5-HT2C Ki).
For the compound `CCCCOc1ccc(CN(Cc2coc(C)n2)C(=O)C(F)C2CCN(C)CC2)cc1F` (racemic) [Compound I-124], the Ki in assay [1] (read-out: h-5-HT2A Ki) and in assay [2] (read-out: h-5-HT2C Ki) was less than 10 nM in each case.
Turning to `CC(C)COc1ccc(CN(Cc2ccn(C)c2)C(=O)OC2CCN(C)CC2)cc1` [Compound I-092], the Ki in assay [1] (read-out: h-5-HT2A Ki) and in assay [2] (read-out: h-5-HT2C Ki) was less than 10 nM throughout.
Regarding `CCCc1ccc(CN(Cc2coc(C)n2)C(=O)NC2CCN(C)CC2)cc1` [Compound I-108], the Ki in assay [1] (read-out: h-5-HT2A Ki) and in assay [2] (read-out: h-5-HT2C Ki) was less than 10 nM throughout.
On to `CCCOc1ccc(CN(Cc2ccc(F)cn2)C(=O)NC2CCN(C)CC2)cc1` [Compound I-021], for which the Ki in assay [1] (read-out: h-5-HT2A Ki) and in assay [2] (read-out: h-5-HT2C Ki) was less than 10 nM throughout.
With `CCCCOc1ccc(CN(Cc2coc(C(F)F)n2)C(=O)NC2CCN(C)CC2)cc1` [Compound I-109], the values for the Ki in assay [1] (setting [3]) and in assay [2] (setting [4]) were 0.43 nM and 0.463 nM, respectively.
`COc1ccc(CN(Cc2ccn(C)c2)C(=O)OC2CCN(C)CC2)cc1` [Compound I-094]: the Ki is less than 10 nM in assay [1] (read-out: h-5-HT2A Ki) and 10 to 100 nM in assay [2] (read-out: h-5-HT2C Ki).
In the same order, the values of `CC(C)COc1ccc(CN(Cc2ccn(C)n2)C(=O)NC2CCN(CC3CCC3)CC2)cc1` [Compound I-076] are less than 10 nM and 10 to 100 nM.
For `CC(C)COc1ccc(CN(Cc2ccn(C)n2)C(=O)NC2CCNCC2)cc1` [Compound I-079], the Ki in assay [1] (read-out: h-5-HT2A Ki) and in assay [2] (read-out: h-5-HT2C Ki) was less than 10 nM throughout.
